Test results published in patent US6441019B2, “Cyclocarbamate and cyclic amide derivatives” (Wyeth, priority 1999, dated 2002).

| SMILES | melting point [°C] |
| --- | --- |
| CC1(C)OC(=O)Nc2sc(-c3cccc(Cl)c3)cc21 [Example 1, 6-(3-chlorophenyl)-1,4-dihydro-4,4-dimethyl-2H-thieno [2,3-d][1,3]oxazine-2-one] | 149 to 150 |
| CC1(C)OC(=O)Nc2cc(-c3cccc(Cl)c3)sc21 [Example 2, 6-(3-chlorophenyl)-1,4-dihydro-4,4-dimethyl-2H-thieno[3,2-d][1,3]oxazine-2-one] | 123 to 125 |
